Laboratory results taken from patent US11225499B2, “Chiral platinum complex, method for preparing the same, and method for using the same” (Hefei University of Technology, priority 2019, dated 2022).

What was measured:
[1] = tested on: Human oral cancer cells KB-VIN; assay: Anti-cancer activity, KB-VIN cells; assay type: cell-based; conditions: KB-VIn (anti-drug-resistant nasopharyngeal carcinoma)
[2] = tested on: KB (nasopharyngeal carcinoma)

[1,4-(4R)-diphenyl-2-oxazolinyl benzene] platinum nitrate complex [Platinum complex (I)]
inhibitory activity ED50 [1]: < 10.0 µg/mL
inhibitory activity ED50 [2]: < 10.0 µg/mL
